Tested on: 958667-338-R-J2-PDC tumor spheroids viability
Experiment: Anticancer human tumor 958667-338-R-J2-PDC patient-derived colon adenocarcinoma cell line growth inhibition [PI3K]
Conditions: spheroids with HUVEC and MSC; for IC50: curve of first compound; for viability, T/C: stronger effect = lower value
Method in brief: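 Three cell types, namely tumor cells, endothelial cells and mesenchymal stem cells, formed each spheroid. Combinations with four PI3K inhibitors were screened at clinically achievable concentrations decreasing by half-log, and spheroid viability was recorded.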

[1] = second compound 0.00316 µM, first compound 0.0316 µM
[2] = second compound 0.00316 µM, first compound 0.1 µM
[3] = second compound 0.00316 µM, first compound 0.316 µM
[4] = second compound 0.00316 µM, first compound 1 µM
[5] = second compound 0.01 µM, first compound 0.0316 µM
[6] = second compound 0.01 µM, first compound 0.1 µM
[7] = second compound 0.01 µM, first compound 0.316 µM
[8] = second compound 0.01 µM, first compound 1 µM
[9] = second compound 0.0316 µM, first compound 0.0316 µM
[10] = second compound 0.0316 µM, first compound 0.1 µM
[11] = second compound 0.0316 µM, first compound 0.316 µM
[12] = second compound 0.0316 µM, first compound 1 µM
[13] = second compound 0.1 µM, first compound 0.0316 µM
[14] = second compound 0.1 µM, first compound 0.1 µM
[15] = second compound 0.1 µM, first compound 0.316 µM
[16] = second compound 0.1 µM, first compound 1 µM
[17] = second compound 0.316 µM, first compound 0.0316 µM
[18] = second compound 0.316 µM, first compound 0.1 µM
[19] = second compound 0.316 µM, first compound 0.316 µM
[20] = second compound 0.316 µM, first compound 1 µM
[21] = second compound 1 µM, first compound 0.0316 µM
[22] = second compound 1 µM, first compound 0.1 µM
[23] = second compound 1 µM, first compound 0.316 µM
[24] = second compound 1 µM, first compound 1 µM
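Further: spheroids exposed to compounds for seven days before readout.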

For `CC(C)NCC(C(=O)N1CCN(c2ncnc3c2C(C)CC3O)CC1)c1ccc(Cl)cc1` (centres undefined) + COc1c(OCCCN2CCOCC2)ccc2c3n(c(=NC(=O)c4cnc(N)nc4)nc12)CCN3, the IC50 (second compound 0.00316 µM) was over 10000 nM, the IC50 (second compound 0.01 µM) was over 10000 nM and the IC50 (second compound 0.0316 µM) was over 10000 nM. It also gave an IC50 (second compound 0.1 µM) of 4020 nM, an IC50 (second compound 0.316 µM) of under 31.6 nM and an IC50 (second compound 1 µM) of under 31.6 nM. The viability, T/C [1] was 94.4%, the viability, T/C [2] was 88% and the viability, T/C [3] was 74%. It also gave a viability, T/C [4] of 95.7%, a viability, T/C (second compound 0.00316 µM, first compound 3.16 µM) of 90.7% and a viability, T/C (second compound 0.00316 µM, first compound 10 µM) of 60.2%. For the same compound, the viability, T/C [5] was 97.8%, the viability, T/C [6] was 73.9% and the viability, T/C [7] was 69%. The viability, T/C [8] was 100%, the viability, T/C (second compound 0.01 µM, first compound 3.16 µM) was 54.8% and the viability, T/C (second compound 0.01 µM, first compound 10 µM) was 66.2%. The viability, T/C [9] was 68.7%, the viability, T/C [10] was 69.3% and the viability, T/C [11] was 67.8%. It also gave a viability, T/C [12] of 77.7%, a viability, T/C (second compound 0.0316 µM, first compound 3.16 µM) of 71.3% and a viability, T/C (second compound 0.0316 µM, first compound 10 µM) of 50.6%. The viability, T/C [13] was 61.6%, the viability, T/C [14] was 43.2% and the viability, T/C [15] was 67.4%. It also gave a viability, T/C [16] of 60.5%, a viability, T/C (second compound 0.1 µM, first compound 3.16 µM) of 51.1% and a viability, T/C (second compound 0.1 µM, first compound 10 µM) of 37.4%. The viability, T/C [17] was 36.9%, the viability, T/C [18] was 35.3% and the viability, T/C [19] was 29.8%. For the same compound, the viability, T/C [20] was 38.1%, the viability, T/C (second compound 0.316 µM, first compound 3.16 µM) was 27.2% and the viability, T/C (second compound 0.316 µM, first compound 10 µM) was 23.1%. The viability, T/C [21] was 17.6%, the viability, T/C [22] was 18.7% and the viability, T/C [23] was 15.4%. It also gave a viability, T/C [24] of 19.5%, a viability, T/C (second compound 1 µM, first compound 3.16 µM) of 16.2% and a viability, T/C (second compound 1 µM, first compound 10 µM) of 14.8%.
`CCN1CCN(Cc2ccc(Nc3ncc(F)c(-c4cc(F)c5nc(C)n(C(C)C)c5c4)n3)nc2)CC1` + COc1c(OCCCN2CCOCC2)ccc2c3n(c(=NC(=O)c4cnc(N)nc4)nc12)CCN3 showed an IC50 (second compound 0.00316 µM) of over 1000 nM, an IC50 (second compound 0.01 µM) of over 1000 nM and an IC50 (second compound 0.0316 µM) of 344 nM. It also gave an IC50 (second compound 0.1 µM) of 4.7 nM, an IC50 (second compound 0.316 µM) of under 3.16 nM and an IC50 (second compound 1 µM) of under 3.16 nM. The viability, T/C (second compound 0.00316 µM, first compound 0.00316 µM) was 100%, the viability, T/C (second compound 0.00316 µM, first compound 0.01 µM) was 106% and the viability, T/C [1] was 82.9%. For the same compound, the viability, T/C [2] was 67.2%, the viability, T/C [3] was 68.3% and the viability, T/C [4] was 64.3%. For the same compound, the viability, T/C (second compound 0.01 µM, first compound 0.00316 µM) was 69.7%, the viability, T/C (second compound 0.01 µM, first compound 0.01 µM) was 87.8% and the viability, T/C [5] was 87.8%. It also gave a viability, T/C [6] of 65.5%, a viability, T/C [7] of 57.4% and a viability, T/C [8] of 51.5%. It also gave a viability, T/C (second compound 0.0316 µM, first compound 0.00316 µM) of 67.5%, a viability, T/C (second compound 0.0316 µM, first compound 0.01 µM) of 61.2% and a viability, T/C [9] of 58.6%. It also gave a viability, T/C [10] of 57.3%, a viability, T/C [11] of 48.4% and a viability, T/C [12] of 46.1%. For the same compound, the viability, T/C (second compound 0.1 µM, first compound 0.00316 µM) was 53.9%, the viability, T/C (second compound 0.1 µM, first compound 0.01 µM) was 41.4% and the viability, T/C [13] was 40.1%. It also gave a viability, T/C [14] of 39%, a viability, T/C [15] of 33.6% and a viability, T/C [16] of 32.1%. It also gave a viability, T/C (second compound 0.316 µM, first compound 0.00316 µM) of 34.4%, a viability, T/C (second compound 0.316 µM, first compound 0.01 µM) of 33.4% and a viability, T/C [17] of 33.8%. For the same compound, the viability, T/C [18] was 22.3%, the viability, T/C [19] was 22.2% and the viability, T/C [20] was 25.3%. The viability, T/C (second compound 1 µM, first compound 0.00316 µM) was 16.9%, the viability, T/C (second compound 1 µM, first compound 0.01 µM) was 14.7% and the viability, T/C [21] was 16.5%. It also gave a viability, T/C [22] of 14.3%, a viability, T/C [23] of 16.6% and a viability, T/C [24] of 18.1%.

From PubChem BioAssay AID1963963 (Molecular Pharmacology Branch, DTP, NCI, 2024)
